Assay results: publication PMC11607896 (Biotechnology for Biofuels and Bioproducts, 2024)

How the values were obtained:
Format in all cases: biochemical
[1] = target: T1, PcCel7D (Phanerodontia chrysosporium, UniProt Q7LIJ0); assay: inhibition of pNPC hydrolysis; conditions: 1 mM pNPC, 1.45 µM enzyme, pH 5.0, 50 °C, 20 min; product inhibition
T1 sequence (Q7LIJ0 19-510): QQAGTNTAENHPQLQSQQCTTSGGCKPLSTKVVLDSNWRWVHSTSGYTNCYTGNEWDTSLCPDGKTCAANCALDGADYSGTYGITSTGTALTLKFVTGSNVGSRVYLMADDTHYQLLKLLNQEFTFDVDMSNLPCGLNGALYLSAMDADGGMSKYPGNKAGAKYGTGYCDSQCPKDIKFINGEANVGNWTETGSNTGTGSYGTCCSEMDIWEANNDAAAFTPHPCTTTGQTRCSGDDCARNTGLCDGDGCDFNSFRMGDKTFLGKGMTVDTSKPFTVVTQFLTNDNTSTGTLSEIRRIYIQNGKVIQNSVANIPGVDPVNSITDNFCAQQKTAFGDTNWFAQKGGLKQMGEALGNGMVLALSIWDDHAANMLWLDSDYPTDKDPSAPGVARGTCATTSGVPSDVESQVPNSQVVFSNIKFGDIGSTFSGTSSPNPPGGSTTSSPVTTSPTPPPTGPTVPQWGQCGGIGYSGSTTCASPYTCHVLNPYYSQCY

[2] = target: T2, TrCel7A (Trichoderma reesei, UniProt P62694); assay: inhibition of pNPC hydrolysis; conditions: 1 mM pNPC, 1.45 µM enzyme, pH 5.0, 50 °C, 20 min; product inhibition
T2 sequence (P62694 18-513): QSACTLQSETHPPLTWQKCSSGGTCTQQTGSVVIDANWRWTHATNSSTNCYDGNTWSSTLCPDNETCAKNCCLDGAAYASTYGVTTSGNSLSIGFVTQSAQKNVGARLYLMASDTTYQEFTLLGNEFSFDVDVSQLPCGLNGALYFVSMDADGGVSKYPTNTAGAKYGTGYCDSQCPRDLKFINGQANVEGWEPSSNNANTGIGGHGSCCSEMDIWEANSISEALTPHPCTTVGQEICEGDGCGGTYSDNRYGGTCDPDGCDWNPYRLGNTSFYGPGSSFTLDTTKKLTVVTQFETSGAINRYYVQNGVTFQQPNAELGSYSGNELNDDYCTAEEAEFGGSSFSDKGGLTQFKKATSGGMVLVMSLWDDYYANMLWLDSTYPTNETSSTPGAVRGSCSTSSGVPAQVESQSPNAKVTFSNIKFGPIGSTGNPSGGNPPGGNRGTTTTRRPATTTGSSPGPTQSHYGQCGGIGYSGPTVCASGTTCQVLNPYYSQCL

[3] = target: T3, PcCel7C (Phanerodontia chrysosporium, UniProt P13860); assay: inhibition of pNPC hydrolysis; conditions: 1 mM pNPC, 1.45 µM enzyme, pH 5.0, 50 °C, 20 min; product inhibition
T3 sequence (P13860 19-516): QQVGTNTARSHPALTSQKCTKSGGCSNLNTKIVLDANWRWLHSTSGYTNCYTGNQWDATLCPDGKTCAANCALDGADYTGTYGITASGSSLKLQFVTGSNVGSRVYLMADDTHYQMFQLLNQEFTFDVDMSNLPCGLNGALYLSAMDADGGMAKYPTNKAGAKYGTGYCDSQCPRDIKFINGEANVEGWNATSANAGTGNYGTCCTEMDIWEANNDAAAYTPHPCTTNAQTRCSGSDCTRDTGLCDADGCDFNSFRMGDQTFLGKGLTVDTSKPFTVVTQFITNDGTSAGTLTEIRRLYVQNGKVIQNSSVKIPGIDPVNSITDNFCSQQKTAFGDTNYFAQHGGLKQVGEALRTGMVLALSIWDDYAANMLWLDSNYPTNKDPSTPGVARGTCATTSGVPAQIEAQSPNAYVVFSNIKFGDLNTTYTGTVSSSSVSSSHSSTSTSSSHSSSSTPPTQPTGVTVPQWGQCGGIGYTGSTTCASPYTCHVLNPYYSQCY

[4] = target: T3, PcCel7C; assay: PASC hydrolysis, reducing sugar; conditions: PASC 10 g/L, 0.2 µM enzyme, pH 5.0, 50 °C, 60 min; may be deactivation
[5] = target: T1, PcCel7D; assay: PASC hydrolysis, reducing sugar; conditions: PASC 10 g/L, 0.2 µM enzyme, pH 5.0, 50 °C, 60 min; may be deactivation
[6] = target: T3, PcCel7C; assay: PASC hydrolysis, reducing sugar; conditions: PASC 10 g/L, 0.2 µM enzyme, pH 5.0, 50 °C, 60 min; may be deactivation; remark: listed apart in the source
[7] = target: T1, PcCel7D; assay: PASC hydrolysis, reducing sugar; conditions: PASC 10 g/L, 0.2 µM enzyme, pH 5.0, 50 °C, 60 min; may be deactivation; remark: listed apart in the source
[8] = target: T2, TrCel7A; assay: inhibition of pNPC hydrolysis; conditions: 1 mM pNPC, 1.45 µM enzyme, pH 5.0, 50 °C, 20 min
[9] = target: T1, PcCel7D; assay: inhibition of pNPC hydrolysis; conditions: 1 mM pNPC, 1.45 µM enzyme, pH 5.0, 50 °C, 20 min
[10] = target: T3, PcCel7C; assay: inhibition of pNPC hydrolysis; conditions: 1 mM pNPC, 1.45 µM enzyme, pH 5.0, 50 °C, 20 min

OC[C@H]1O[C@@H](O[C@H]2[C@H](O)[C@@H](O)C(O)O[C@@H]2CO)[C@H](O)[C@@H](O)[C@@H]1O (stereo partly shown) [cellobiose]
% reduction in activity at 1 mM [1]: ~ 50% | % reduction in activity at 1 mM [2]: ~ 50% | % reduction in activity at 1 mM [3]: ~ 50%

O=C(O)c1ccc(O)cc1 [compound 3, 4-hydroxybenzoic acid]
% decrease in activity at 30 mM [4]: the activity of PcCBHs exhibited susceptibility to the same LRCs, following a comparable pattern | % decrease in activity at 30 mM [5]: the activity of PcCBHs exhibited susceptibility to the same LRCs, following a comparable pattern

O=C(O)c1c(O)cccc1O [compound 12, 2,6-dihydroxybenzoic acid]
% reduction in activity at 30 mM [6]: 87% | % reduction in activity at 30 mM [7]: 67%

OC[C@H]1OC(O)[C@H](O)[C@@H](O)[C@@H]1O (stereo partly shown) [glucose]
% loss of activity at 1.5 M [8]: 30% | % loss of activity at 1.5 M [9]: 67% | % loss of activity at 1.5 M [10]: 67%
